{"source": "patent US20040166058A1", "about": "“Ethylenedicysteine (EC)-drug conjugates, compositions and methods for tissue specific disease imaging” (Board of Regents, The University of Texas System, priority 2002, published 2004)", "key": {"[1]": {"test_system": "RBA CRL-1747 (breast cancer cells)", "assay": "In vitro cellular uptake in breast cancer cells", "assay_type": "cell-based", "conditions": "0.5-2 hrs, 50,000 cells/well", "excerpt": "There was more uptake in ^99mTc-EC-carnitine than ^99mTc-EC (FIG. 16)."}, "[2]": {"test_system": "RBA CRL-1747 mammary tumor", "assay": "Biodistribution in mammary (breast) tumor-bearing rats", "assay_type": "in vivo", "conditions": "iv", "method": "(§1) Biodistribution was assessed in mammary tumor-bearing rats (RBA CRL-1747, n=3/time interval, iv). Studies were performed 14 to 17 days after implantation when tumors reached approximately 1 cm in diameter. Following administration of the radiotracer, rats were sacrificed at 0.5-4 hrs. The selected tissues were excised, weighed and counted for radioactivity by using a gamma counter (Packard Instruments, Downers Grove, Ill.). The biodistribution of tracer in each sample was calculated as percentage of the injected dose per gram of tissue wet weight (% ID/g).\nas §1, with “breast” for “mammary”"}, "mammary tumor": {"test_system": "mammary tumor", "assay": "Scintigraphic imaging in mammary (breast) tumor-bearing rats", "assay_type": "in vivo", "conditions": "0.1-4 hrs, 0.1 mCi/rat, iv", "experimental": "Scintigraphic imaging studies was performed in mammary tumor-bearing rats at 0.5-4 hrs (0.3 mCi/rat, n=3, iv). Control group was administered ^99mTc-EC. Computer-outlined region of interest was used to determine tumor uptake (counts/pixel) and tumor/nontumor count density ratios.\nScintigraphic imaging studies was performed in mammary tumor-bearing rats at 0.5-4 hrs (0.3 mCi/rat, n=3, iv). Control group was administered ^99mTc-EC.\nScintigraphic imaging studies was performed in mammary tumor-bearing rats at 0.5-4 hrs (0.1 mCi/rat, n=3, iv). Control group was administered ^99mTc-EC.\nScintigraphic imaging studies was performed in breast tumor-bearing rats at 0.5-4 hrs (0.1 mCi/rat, n=3, iv). Control group was administered ^99mTc-EC.\nScintigraphic imaging studies was performed in breast tumor-bearing rats at 0.1-4 hrs (0.1 mCi/rat, n=3, iv). Control group was administered ^99mTc-EC."}, "[3]": {"test_system": "human ovarian and uterine cancer cells", "assay": "In vitro cellular uptake in human ovarian and uterine cancer cells", "assay_type": "cell-based", "conditions": "4-6 μCi/50,000 cells/well, 0.5-2 hrs", "experimental": "An in vitro cell culture using tumor cells was incubated with ^99mTc-EC-penciclovir (4-6 μCi/50,000 cells/well) at 0.5-2 hrs in human ovarian and uterine cancer cells."}, "[4]": {"test_system": "RBA CRL-1747 breast cancer cells", "assay": "In vitro blocking study of ^99mTc-EC-angiostatin uptake with unlabeled angiostatin", "assay_type": "cell-based", "conditions": "unlabeled angiostatin 0-200 μM, 0.5-2 hrs, R^2=0.998; read-out: IC-50 of angiostatin (inhibition of ^99mTc-EC-angiostatin uptake)", "method": "The IC-50 of angiostatin was 176 μM (R^2=0.998) (FIG. 3)."}, "[5]": {"assay": "Cell culture uptake of Re-188 versus Tc-99m labeled EC-agents", "assay_type": "cell-based", "method": "To develop EC-DG in a kit form, EC-DG (10 mg) dissolved in 0.2 ml of water was freeze dried with tin chloride (2 mg in 0.2 ml of water) and gluconate (3 mg) in a 10 ml medi-vial and stored at room temperature prior to labeling. During labeling, the freeze dried powder was reconstituted in saline (0.5 ml) and pertechnate (10 mCi) was added. The kit was heated at 55° C. for 30 min (or 75° C. for 15 min). Radiochemical purity of ^99mTc-EC-DG was greater than 95% as determined by radio-TLC (saline, Rf: 0.8)(FIG. 39). A similar method could be applied to other EC-agents such as EC-metronidazole (EC-MN)(FIG. 40) and EC-penciclovir (also known as EC-Guan)."}, "[6]": {"test_system": "human ovarian cancer cells", "conditions": "4-6 μCi/50,000 cells/well, 0.5-2 hrs"}, "[7]": {"test_system": "human prostate cancer cells (LNCap, PC-3)", "assay": "In vitro cellular uptake in human prostate cancer cells", "assay_type": "cell-based", "conditions": "4-6 μCi/100,000 cells/well, 0.5-2 hrs, LNCap and PC-3", "method": "An in vitro cell culture using tumor cells was incubated with ^99mTc-EC-LHRH (4-6 μCi/100,000 cells/well) at 0.5-2 hrs in human prostate cancer cells. Two types cell lines were used. They are either sensitive to androgen (LNCap) or unresponsive to androgen (PC-3) therapy."}}, "note": "pIC50: −log10 of the molar value. Ends that are not written are not given here.", "data": [{"molecule": "Cc1ccc(-c2cc(C(F)(F)F)nn2-c2ccc(S(=O)(=O)NC(=O)NCC(=O)NCCNC(=O)C3C[S][99Tc]45(=[O])[S]CC(C(=O)O)[N]4CC[N]35)cc2)cc1", "note": "(stereo not drawn) [^99mTc-EC-COX-2]", "values": [{"measurement": "cellular uptake compared to ^99mTc-EC", "setting": "[1]", "value": "significant increase in uptake"}, {"measurement": "tumor-to-tissue count density ratios compared to ^99mTc-EC", "setting": "[2]; 0.5-4 hrs", "value": "increased tumor-to-tissue count density ratios as a function of time"}, {"measurement": "BONE/MUSCLE", "setting": "[2]; 30 min", "value": "2.419 ± 0.225"}, {"measurement": "Biodistribution BONE & JOINT", "setting": "[2]; 30 min", "value": "0.324 ± 0.036 % of injected dose per gram of tissue weight"}, {"measurement": "Biodistribution Blood", "setting": "[2]; 30 min", "value": "2.293 ± 0.038 % of injected dose per gram of tissue weight"}, {"measurement": "Biodistribution Heart", "setting": "[2]; 30 min", "value": "0.475 ± 0.025 % of injected dose per gram of tissue weight"}, {"measurement": "Biodistribution Intestine", "setting": "[2]; 30 min", "value": "0.406 ± 0.039 % of injected dose per gram of tissue weight"}, {"measurement": "Biodistribution Kidney", "setting": "[2]; 30 min", "value": "4.963 ± 0.147 % of injected dose per gram of tissue weight"}, {"measurement": "Biodistribution Liver", "setting": "[2]; 30 min", "value": "1.556 ± 0.046 % of injected dose per gram of tissue weight"}, {"measurement": "Biodistribution Lung", "setting": "[2]; 30 min", "value": "1.033 ± 0.035 % of injected dose per gram of tissue weight"}, {"measurement": "Biodistribution Muscle", "setting": "[2]; 30 min", "value": "0.133 ± 0.007 % of injected dose per gram of tissue weight"}, {"measurement": "Biodistribution Spleen", "setting": "[2]; 30 min", "value": "0.594 ± 0.298 % of injected dose per gram of tissue weight"}, {"measurement": "Biodistribution Stomach", "setting": "[2]; 30 min", "value": "0.370 ± 0.010 % of injected dose per gram of tissue weight"}, {"measurement": "Biodistribution Thyroid", "setting": "[2]; 30 min", "value": "0.784 ± 0.090 % of injected dose per gram of tissue weight"}, {"measurement": "Biodistribution Tumor", "setting": "[2]; 30 min", "value": "0.587 ± 0.062 % of injected dose per gram of tissue weight"}, {"measurement": "Biodistribution UTERUS", "setting": "[2]; 30 min", "value": "0.595 ± 0.003 % of injected dose per gram of tissue weight"}, {"measurement": "Tumor/Blood", "setting": "[2]; 30 min", "value": "0.255 ± 0.022"}, {"measurement": "Tumor/Muscle", "setting": "[2]; 30 min", "value": "4.375 ± 0.304"}, {"measurement": "UTERUS/BLOOD", "setting": "[2]; 30 min", "value": "0.259 ± 0.003"}, {"measurement": "UTERUS/MUSCLE", "setting": "[2]; 30 min", "value": "4.471 ± 0.257"}, {"measurement": "BONE/MUSCLE", "setting": "[2]; 2 h", "value": "3.058 ± 0.114"}, {"measurement": "Biodistribution BONE & JOINT", "setting": "[2]; 2 h", "value": "0.190 ± 0.003 % of injected dose per gram of tissue weight"}, {"measurement": "Biodistribution Blood", "setting": "[2]; 2 h", "value": "1.388 ± 0.063 % of injected dose per gram of tissue weight"}, {"measurement": "Biodistribution Heart", "setting": "[2]; 2 h", "value": "0.283 ± 0.017 % of injected dose per gram of tissue weight"}, {"measurement": "Biodistribution Intestine", "setting": "[2]; 2 h", "value": "0.276 ± 0.061 % of injected dose per gram of tissue weight"}, {"measurement": "Biodistribution Kidney", "setting": "[2]; 2 h", "value": "6.088 ± 0.305 % of injected dose per gram of tissue weight"}, {"measurement": "Biodistribution Liver", "setting": "[2]; 2 h", "value": "1.461 ± 0.049 % of injected dose per gram of tissue weight"}, {"measurement": "Biodistribution Lung", "setting": "[2]; 2 h", "value": "0.712 ± 0.098 % of injected dose per gram of tissue weight"}, {"measurement": "Biodistribution Muscle", "setting": "[2]; 2 h", "value": "0.062 ± 0.003 % of injected dose per gram of tissue weight"}, {"measurement": "Biodistribution Spleen", "setting": "[2]; 2 h", "value": "0.965 ± 0.056 % of injected dose per gram of tissue weight"}, {"measurement": "Biodistribution Stomach", "setting": "[2]; 2 h", "value": "0.187 ± 0.004 % of injected dose per gram of tissue weight"}, {"measurement": "Biodistribution Thyroid", "setting": "[2]; 2 h", "value": "0.449 ± 0.015 % of injected dose per gram of tissue weight"}, {"measurement": "Biodistribution Tumor", "setting": "[2]; 2 h", "value": "0.424 ± 0.019 % of injected dose per gram of tissue weight"}, {"measurement": "Biodistribution UTERUS", "setting": "[2]; 2 h", "value": "0.334 ± 0.034 % of injected dose per gram of tissue weight"}, {"measurement": "Tumor/Blood", "setting": "[2]; 2 h", "value": "0.307 ± 0.018"}, {"measurement": "Tumor/Muscle", "setting": "[2]; 2 h", "value": "6.876 ± 0.704"}, {"measurement": "UTERUS/BLOOD", "setting": "[2]; 2 h", "value": "0.240 ± 0.021"}, {"measurement": "UTERUS/MUSCLE", "setting": "[2]; 2 h", "value": "5.442 ± 0.852"}, {"measurement": "BONE/MUSCLE", "setting": "[2]; 4 h", "value": "4.314 ± 0.739"}, {"measurement": "Biodistribution BONE & JOINT", "setting": "[2]; 4 h", "value": "0.178 ± 0.022 % of injected dose per gram of tissue weight"}, {"measurement": "Biodistribution Blood", "setting": "[2]; 4 h", "value": "1.031 ± 0.033 % of injected dose per gram of tissue weight"}, {"measurement": "Biodistribution Heart", "setting": "[2]; 4 h", "value": "0.224 ± 0.004 % of injected dose per gram of tissue weight"}, {"measurement": "Biodistribution Intestine", "setting": "[2]; 4 h", "value": "0.190 ± 0.006 % of injected dose per gram of tissue weight"}, {"measurement": "Biodistribution Kidney", "setting": "[2]; 4 h", "value": "6.363 ± 0.260 % of injected dose per gram of tissue weight"}, {"measurement": "Biodistribution Liver", "setting": "[2]; 4 h", "value": "1.506 ± 0.080 % of injected dose per gram of tissue weight"}, {"measurement": "Biodistribution Lung", "setting": "[2]; 4 h", "value": "0.500 ± 0.011 % of injected dose per gram of tissue weight"}, {"measurement": "Biodistribution Muscle", "setting": "[2]; 4 h", "value": "0.002 ± 0.004 % of injected dose per gram of tissue weight"}, {"measurement": "Biodistribution Spleen", "setting": "[2]; 4 h", "value": "0.981 ± 0.041 % of injected dose per gram of tissue weight"}, {"measurement": "Biodistribution Stomach", "setting": "[2]; 4 h", "value": "0.139 ± 0.004 % of injected dose per gram of tissue weight"}, {"measurement": "Biodistribution Thyroid", "setting": "[2]; 4 h", "value": "0.372 ± 0.021 % of injected dose per gram of tissue weight"}, {"measurement": "Biodistribution Tumor", "setting": "[2]; 4 h", "value": "0.406 ± 0.004 % of injected dose per gram of tissue weight"}, {"measurement": "Biodistribution UTERUS", "setting": "[2]; 4 h", "value": "0.263 ± 0.005 % of injected dose per gram of tissue weight"}, {"measurement": "Tumor/Blood", "setting": "[2]; 4 h", "value": "0.395 ± 0.014"}, {"measurement": "Tumor/Muscle", "setting": "[2]; 4 h", "value": "9.715 ± 0.387"}, {"measurement": "UTERUS/BLOOD", "setting": "[2]; 4 h", "value": "0.255 ± 0.005"}, {"measurement": "UTERUS/MUSCLE", "setting": "[2]; 4 h", "value": "6.278 ± 0.199"}]}, {"molecule": "C[N+](C)(C)CCCCC(NC(=O)C1C[S][99Tc]23(=[O])[S]CC(C(=O)NC(CCCC[N+](C)(C)C)C(=O)[O-])[N]2CC[N]13)C(=O)[O-]", "note": "(stereo not drawn) [^99mTc-EC-carnitine]", "values": [{"measurement": "cellular uptake compared to ^99mTc-EC", "setting": "[1]", "value": "more uptake"}, {"measurement": "count density ratios tumor/muscle and heart/muscle", "setting": "mammary tumor", "value": "High count density ratios"}]}, {"molecule": "Nc1nc2c(ncn2CCC(CO)CNC(=O)C2C[S][99Tc]34(=[O])[S]CC(C(=O)NCC(CO)CCn5cnc6c(=O)[nH]c(N)nc65)[N]3CC[N]24)c(=O)[nH]1", "note": "(stereo not drawn) [^99mTc-EC-penciclovir]", "values": [{"measurement": "cellular uptake compared to ^99mTc-EC", "setting": "[3]", "value": "significant increased uptake"}]}, {"molecule": "angiostatin", "values": [{"measurement": "pIC50", "setting": "[4]", "value": 3.75}]}, {"molecule": "Nc1nc2c(ncn2CCC(CO)CNC(=O)[C@H](CS)NCCN[C@@H](CS)C(=O)NCC(CO)CCn2cnc3c(=O)[nH]c(N)nc32)c(=O)[nH]1", "note": "(stereo partly drawn) [EC-Guan]", "values": [{"measurement": "uptakes of Re-188 versus Tc-99m labeled agent", "setting": "[5]", "value": "no marked difference between uptakes"}]}, {"molecule": "CN(C)c1ncnc2c1ncn2C1OC(CO)C(NC(=O)C2C[S][99Tc]34(=[O])[S]CC(C(=O)O)[N]3CC[N]24)C1O", "note": "(stereo not drawn) [^99mTc-EC-adenosine]", "values": [{"measurement": "cellular uptake compared to ^99mTc-EC", "setting": "[6]", "value": "significant increased uptake"}]}, {"molecule": "^99mTc-EC-LHRH (QHWSYGLRPG; also: 99mTc-ethylenedicysteine (EC) label, attachment site not given here; UniProt P01148 24-33, looked up)", "values": [{"measurement": "cellular uptake compared to ^99mTc-EC", "setting": "[7]", "value": "significant increased uptake"}]}]}
